Source: PubChem BioAssay AID248 (DTP/NCI, 2004)
Where “and” joins values, the source holds several entries; their conditions need not be identical. Identical values can stand only once. Inconclusive results and toxic doses are left out. Cut-off read from the data, not from the text of the source: active = T/C of 150% or more; inactive = T/C below 125%.

Test system: L1210 leukemia ip in BDF1 mice, survival T/C
Experiment: NCI In Vivo Anticancer Drug Screen. Data for tumor model L1210 Leukemia (intraperitoneal) in B6D2F1 (BDF1) mice
Conditions: endpoint: mean survival time, higher = longer survival
Procedure, shortened: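 Tumor cells were implanted, animals were treated, and survival was followed. The result divides the treated measurement by the vehicle-control measurement.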

[1] = dose: 100.0 mg/kg/injection, schedule: Q01DX009 (ip), vehicle: Klucel (hydroxypropylcellulose) (HPC)
[2] = dose: 100.0 mg/kg/injection, schedule: Q04DX003 (ip), vehicle: Klucel (hydroxypropylcellulose) (HPC)
[3] = dose: 200.0 mg/kg/injection, schedule: Q01DX009 (ip), vehicle: Klucel (hydroxypropylcellulose) (HPC)
[4] = dose: 200.0 mg/kg/injection, schedule: Q04DX003 (ip), vehicle: Klucel (hydroxypropylcellulose) (HPC)
[5] = dose: 400.0 mg/kg/injection, schedule: Q01DX009 (ip), vehicle: Klucel (hydroxypropylcellulose) (HPC)
[6] = dose: 400.0 mg/kg/injection, schedule: Q04DX003 (ip), vehicle: Klucel (hydroxypropylcellulose) (HPC)
[7] = dose: 50.0 mg/kg/injection, schedule: Q01DX009 (ip), vehicle: saline with Tween-80
[8] = dose: 100.0 mg/kg/injection, schedule: Q01DX009 (ip), vehicle: saline with Tween-80
[9] = dose: 100.0 mg/kg/injection, schedule: Q04DX003 (ip), vehicle: saline with Tween-80
[10] = dose: 200.0 mg/kg/injection, schedule: Q01DX009 (ip), vehicle: saline with Tween-80
[11] = dose: 200.0 mg/kg/injection, schedule: Q04DX003 (ip), vehicle: saline with Tween-80
[12] = dose: 400.0 mg/kg/injection, schedule: Q04DX003 (ip), vehicle: saline with Tween-80
[13] = dose: 50.0 mg/kg/injection, schedule: Q01DX009 (ip), vehicle: Klucel (hydroxypropylcellulose) (HPC)
[14] = dose: 100.0 mg/kg/injection, schedule: Q04DX002 (ip), vehicle: Klucel (hydroxypropylcellulose) (HPC)
[15] = dose: 100.0 mg/kg/injection, schedule: Q01DX001 (ip), vehicle: saline
[16] = dose: 200.0 mg/kg/injection, schedule: Q01DX001 (ip), vehicle: saline
[17] = dose: 400.0 mg/kg/injection, schedule: Q01DX001 (ip), vehicle: saline
[18] = dose: 50.0 mg/kg/injection, schedule: Q01DX001 (ip), vehicle: saline

Measured: T/C

Cc1ccc(S(=O)(=O)OCC2OCOC2C2OCOC2C)cc1 (stereo not given)
inactive: dose: 100.0 mg/kg/injection, schedule: Q01DX001 (ip), vehicle: saline with Tween-80 104 % of control | dose: 200.0 mg/kg/injection, schedule: Q01DX001 (ip), vehicle: saline with Tween-80 93 % of control | dose: 400.0 mg/kg/injection, schedule: Q01DX001 (ip), vehicle: saline with Tween-80 97 % of control

CCOC(=O)C(C(=O)OCC)N1C(=O)c2ccccc2C1=O
inactive: [1] 100 % of control | [2] 106 % of control and 102 % of control | [3] 102 % of control | [4] 105 % of control and 104 % of control | [5] 102 % of control | [6] 101 % of control and 100 % of control

CC(C)=CCCC(C)CCOc1cccc(C)c1 (stereo not given)
inactive: dose: 100.0 mg/kg/injection, schedule: Q04DX002 (ip), vehicle: saline with Tween-80 105 % of control | dose: 200.0 mg/kg/injection, schedule: Q04DX002 (ip), vehicle: saline with Tween-80 99 % of control | dose: 400.0 mg/kg/injection, schedule: Q04DX002 (ip), vehicle: saline with Tween-80 89 % of control

BrCC(Br)CBr
inactive: [7] 94 % of control | [8] 91 % of control | [9] 94 % of control | [10] 98 % of control | [11] 102 % of control

CCOC(=O)NOS(=O)(=O)c1ccc([N+](=O)[O-])cc1
inactive: [9] 100 % of control | [11] 96 % of control | [12] 98 % of control

CC(=O)CC(=O)N1CCCCCC1
inactive: dose: 100.0 mg/kg/injection, schedule: Q01DX009 (ip), vehicle: gum acacia 93 % of control | [9] 98 % of control | dose: 200.0 mg/kg/injection, schedule: Q01DX009 (ip), vehicle: gum acacia 98 % of control | [11] 95 % of control | dose: 400.0 mg/kg/injection, schedule: Q01DX009 (ip), vehicle: gum acacia 101 % of control | [12] 102 % of control

O=S(=O)(NS(=O)(=O)c1ccc(Cl)cc1)c1ccc(Cl)cc1
inactive: [13] 93 % of control | [1] 96 % of control | [2] 88 % of control | [3] 104 % of control | [4] 87 % of control

Nc1nc(=S)[nH]c(N)c1N
inactive: dose: 125.0 mg/kg/injection, schedule: Q01DX Z (ip), vehicle: methylcellulose (MC) 93 % of control

C=CCOC(=O)C1CC(C(=O)OCC=C)C(C(=O)OCC=C)C1C(=O)OCC=C (stereo not given)
inactive: [1] 100 % of control | [2] 91 % of control | [3] 92 % of control | [4] 100 % of control | [5] 92 % of control | [6] 96 % of control

C(Sc1ccccc1)=C(Sc1ccccc1)Sc1ccccc1
inactive: dose: 6.25 mg/kg/injection, schedule: Q01DX009 (ip), vehicle: other 94 % of control | dose: 125.0 mg/kg/injection, schedule: Q01DX009 (ip), vehicle: other 105 % of control | dose: 250.0 mg/kg/injection, schedule: Q01DX009 (ip), vehicle: other 98 % of control

O=C(c1ccc(C(=O)Nc2cccc3ccccc23)c(C(=O)O)c1)c1ccc(C(=O)Nc2cccc3ccccc23)c(C(=O)O)c1
inactive: [14] 97 % of control | dose: 200.0 mg/kg/injection, schedule: Q04DX002 (ip), vehicle: Klucel (hydroxypropylcellulose) (HPC) 94 % of control | dose: 400.0 mg/kg/injection, schedule: Q04DX002 (ip), vehicle: Klucel (hydroxypropylcellulose) (HPC) 94 % of control

CC(=O)c1cccc(NC(=O)Nc2ccc(S(N)(=O)=O)cc2)c1
inactive: [8] 105 % of control | [10] 97 % of control

O=[N+]([O-])c1ccc(CCBr)cc1
inactive: dose: 50.0 mg/kg/injection, schedule: Q01DX001 (ip), vehicle: carboxymethylcellulose (CMC) 96 % of control | dose: 100.0 mg/kg/injection, schedule: Q01DX001 (ip), vehicle: carboxymethylcellulose (CMC) 94 % of control | dose: 200.0 mg/kg/injection, schedule: Q01DX001 (ip), vehicle: carboxymethylcellulose (CMC) 100 % of control | dose: 400.0 mg/kg/injection, schedule: Q01DX001 (ip), vehicle: carboxymethylcellulose (CMC) 105 % of control

Cc1ccc([N+](=O)[O-])cc1/C=C/C(=O)O
inactive: dose: 100.0 mg/kg/injection, schedule: Q04DX003 (ip), vehicle: saline 106 % of control | dose: 200.0 mg/kg/injection, schedule: Q04DX003 (ip), vehicle: saline 93 % of control | dose: 400.0 mg/kg/injection, schedule: Q04DX003 (ip), vehicle: saline 104 % of control

O/N=C1\CCc2ccccc2C(O)C1c1ccccc1 (stereo not given)
inactive: [9] 97 % of control | [11] 102 % of control | [12] 88 % of control

O=S1(=O)CCS(=O)(=O)C12CCCCC2
inactive: [15] 98 % of control | [16] 107 % of control | [17] 90 % of control

COC(=O)/C=C/c1ccc(OC)cc1
inactive: [13] 103 % of control | [1] 102 % of control | [2] 96 % of control | [3] 103 % of control | [4] 100 % of control | [6] 88 % of control

CCOC(=O)c1c(C)c(Br)c(O)c(Br)c1O
inactive: [15] 98 % of control | dose: 100.0 mg/kg/injection, schedule: Q04DX003 (ip), vehicle: other 86 % of control | [16] 91 % of control | dose: 200.0 mg/kg/injection, schedule: Q04DX003 (ip), vehicle: other 100 % of control | [17] 103 % of control | dose: 400.0 mg/kg/injection, schedule: Q04DX003 (ip), vehicle: other 106 % of control

c1cc2n(c1)Cc1cc3c(cc1NC2)OCO3
inactive: dose: 25.0 mg/kg/injection, schedule: Q04DX002 (ip), vehicle: Klucel (hydroxypropylcellulose) (HPC) 90 % of control | dose: 50.0 mg/kg/injection, schedule: Q04DX002 (ip), vehicle: Klucel (hydroxypropylcellulose) (HPC) 86 % of control | [14] 94 % of control

Cn1c(=O)c2c(nc(NCC[N+](C)(C)C)n2C)n(C)c1=O
inactive: dose: 15.0 mg/kg/injection, schedule: Q01DX001 (ip), vehicle: saline 92 % of control | dose: 30.0 mg/kg/injection, schedule: Q01DX001 (ip), vehicle: saline 97 % of control

Nc1ccc(-c2nc3nc(N)nc(N)c3nc2-c2ccc(N)cc2)cc1
inactive: dose: 30.0 mg/kg/injection, schedule: Q01DX Z (ip), vehicle: carboxymethylcellulose (CMC) 102 % of control | dose: 60.0 mg/kg/injection, schedule: Q01DX Z (ip), vehicle: carboxymethylcellulose (CMC) 95 % of control | dose: 120.0 mg/kg/injection, schedule: Q01DX Z (ip), vehicle: carboxymethylcellulose (CMC) 104 % of control | dose: 240.0 mg/kg/injection, schedule: Q01DX Z (ip), vehicle: carboxymethylcellulose (CMC) 101 % of control

CC(c1ccccc1)[P+](c1ccccc1)(c1ccccc1)c1ccccc1 (stereo not given)
inactive: dose: 12.5 mg/kg/injection, schedule: Q04DX002 (ip), vehicle: saline 106 % of control | dose: 25.0 mg/kg/injection, schedule: Q04DX002 (ip), vehicle: saline 111 % of control | dose: 50.0 mg/kg/injection, schedule: Q04DX002 (ip), vehicle: saline 97 % of control

COc1ccc2c3c1OC1C(O)=CCC4[C@H](C2)N(C)CC[C@@]314 (stereo not given in full)
inactive: [15] 95 % of control | [16] 106 % of control

COc1cc(/C=N\NC(=O)c2ccncc2)ccc1O
inactive: [9] 100 % of control | [11] 97 % of control | [12] 103 % of control

O=[N+]([O-])c1cc2cnn(CO)c2cc1[N+](=O)[O-]
inactive: [15] 95 % of control | [16] 95 % of control | [17] 100 % of control

COc1cc(C)c2cc(C)cc(C)c2n1
inactive: dose: 100.0 mg/kg/injection, schedule: Q01DX001 (ip), vehicle: other 95 % of control | dose: 200.0 mg/kg/injection, schedule: Q01DX001 (ip), vehicle: other 101 % of control | dose: 400.0 mg/kg/injection, schedule: Q01DX001 (ip), vehicle: other 93 % of control

CC12CCCCC1=CC(OC(=O)c1ccc([N+](=O)[O-])cc1)CC2 (stereo not given)
inactive: [7] 94 % of control | [8] 98 % of control | [10] 94 % of control

CCS(=O)(=O)CCNC(=O)NS(=O)(=O)c1ccc(C)cc1
inactive: [9] 97 % of control | [11] 97 % of control | [12] 90 % of control

O=C1NC(=O)C(c2cccc(F)c2)N1 (stereo not given)
inactive: [18] 97 % of control | [15] 94 % of control | [16] 94 % of control | [17] 111 % of control

O=C(O)CO
inactive: [18] 94 % of control | [15] 97 % of control | [8] 107 % of control | [16] 108 % of control | [10] 100 % of control | dose: 400.0 mg/kg/injection, schedule: Q01DX009 (ip), vehicle: saline with Tween-80 93 % of control
